Measurements from patent US20230041859A1, “USE OF TERPENOIDS IN THE TREATMENT OR PREVENTION OF FIBROTIC DISEASES” (Arjil Biotech Holding Company Limited, priority 2021, published 2023).
“And” between values parts separate entries of the source, which are not always exact repeats. Equal entries are not always repeated.

Experiments:
[1] = test system: bleomycin-induced pulmonary fibrosis; experiment: Bleomycin-induced pulmonary fibrosis in mice: body weight, lung weight, lung index; type: in vivo; details: for Pulmonary index: lung weight/body weight×100
Procedure: (§1) Specific pathogen-free ICR mice (males) (body weights 18-22 g) were purchased from the BioLASCO Taiwan Co., Ltd. (Taipei, Taiwan). The animals were housed in Plexiglas cages at a constant temperature of 22±1° C. and a relative humidity of 55±5% on a 12 h dark-light cycle for at least 2 weeks before the experiment. Animals were provided food and water ad libitum. All experimental procedures were performed according to the guidelines of the Institutional Animal Ethics Committee, and the protocol was approved by the Committee for the Purpose of Control and Supervision of Experiments on Animals.
(§2) Mice were divided into fifth groups with 5 animals per group according to body weight: control group, BLM group, BLM+DEX group (7.5 mg/kg), BLM+ACH dosage group (50 mg/kg), and BLM+ACM dosage group (25 mg/kg), BLM+ACH dosage group (50 mg/kg), and BLM+ACM dosage group (25 mg/kg) BLM+AH dosage group (50 mg/kg), and BLM+AM dosage group (25 mg/kg) BLM+BH dosage group (50 mg/kg), and BLM+BM dosage group (25 mg/kg) BLM+CH dosage group (50 mg/kg), and BLM+CM dosage group (25 mg/kg) BLM+DH dosage group (50 mg/kg), and BLM+DM dosage group (25 mg/kg) BLM+EH dosage group (50 mg/kg), and BLM+EM dosage group (25 mg/kg) BLM. Pulmonary fibrosis (PF) was established in mice via a single intratracheal administration of BLM at 7.5 mg/kg mg/kg body weight. Different doses of samples were intragastrically administered daily for 21 days after BLM injury, and DEX was used as the positive control. Control and model groups received an equal volume of vehicle (0.9% NaCl) using the same schedule and route of administration.
Mouse body weights were recorded daily. Mice were sacrificed on the 21th day using excess chloral hydrate hydrochloride anesthesia. Blood was obtained for ELISA analyses, and whole lungs were removed and weighed. The right lungs were fixed in 10% formalin, dehydrated, and embedded in paraffin. The left lungs were used to determine hydroxyproline. The pulmonary coefficient was calculated using the following equation: lung weight/body weight×100% […]
At the end point of the entire experiment, the animal's body weight and lung weight were recorded.

[2] = test system: bleomycin-induced pulmonary fibrosis; experiment: Bleomycin-induced pulmonary fibrosis: hydroxyproline content in lung tissue; type: in vivo, mice; details: 50 mg/kg (high-dose groups); p<0.001
Procedure: as §2
(§3) 1. Group I: control; 2. Group II: mice received single intraperitoneal injection of BLM (7.5 mg/kg BW) 3. Group III: single dose (ACH, 0.5 g/kg) 4. Group IV: Single dose (ACM, 1.0 g/kg) 5. […] Group VII: purified AR101-DS2 (50 mg/kg) 8. Group VIII: purified AR101-DS2 (25 mg/kg) 7. Group VII: purified AR101-DS4 (50 mg/kg) 8. Group VIII: purified AR101-DS4 (25 mg/kg) 7. […] Group VII: purified ARH013-RA1 (50 mg/kg) 8. Group VIII: purified ARH013-RA1 (25 mg/kg)

MPO = experiment: Bleomycin-induced pulmonary fibrosis: lung myeloperoxidase (MPO) assay; type: in vivo, mice; details: 50 mg/kg (high-dose groups); vs BLM group p<0.001
Procedure: as §2, §3
The lung tissues were homogenized and the MPO levels were detected with the kits according to manufacturer's instruction.

[3] = test system: TNF-α, IL-1β, IL-6 and TGF-β; experiment: Bleomycin-induced pulmonary fibrosis: pro-inflammatory cytokines (ELISA); type: in vivo, mice; details: 50 mg/kg (high-dose groups); serum (FIG. 35 legend: BALF); p<0.001
Procedure: as §2
1. Group I: control; 2. […]
The serum concentration of the pro-inflammatory cytokines (i.e. tumor necrosis factor-α (TNF-α), interleukin-6 (IL-6), and IL-1β) in serum were assessed with relevant enzyme-linked immunosorbent assay (ELISA) kits (Biosource International Inc., Sunnyvale, Calif., USA), based on the manufacturer's instructions. […]

[4] = test system: bleomycin-induced pulmonary fibrosis; experiment: Bleomycin-induced pulmonary fibrosis: lung histopathology (H&E, Masson's trichrome); type: in vivo, mice; details: 50 mg/kg (high-dose groups)
Procedure: as §2
1. Group I: control; 2. Group II: mice received single intraperitoneal injection of BLM (7.5 mg/kg BW) 3. Group III: single dose (ACH, 0.5 g/kg) 4. Group IV: Single dose (ACM, 1.0 g/kg) 5. […] Group VII: purified AR101-DS2 (50 mg/kg) 8. Group VIII: purified AR101-DS2 (25 mg/kg) 7. Group VII: purified AR101-DS4 (50 mg/kg) 8. Group VIII: purified AR101-DS4 (25 mg/kg) 7. […]

[5] = test system: cisplatin-induced renal injury; experiment: Mice model of cisplatin-induced renal injury: serum creatinine (CRE) and BUN; type: in vivo; details: compounds, dose not given, daily for 7 days; p<0.001 vs cisplatin group
Procedure: Determination of biochemical parameters Serum creatinine and serum urea are assessed using colorimetric kits according to manufacturer's instructions. Kits of the former markers are purchased from (HUMAN Diagnostics Worldwide, Magdeburg, Germany) with a chemical analyzer (Roche Diagnostics, Cobas Mira Plus, Rotkreuz, Switzerland).
as §1, with “Seven-to-eight-week-old male C57BL/6” for “Specific pathogen-free ICR”, “are obtained” for “(males) (body weights 18-22 g) were purchased”, “are” for “were”, “is” for “was”
Renal fibrosis is induced via multiple injections of low-dose cisplatin. Intraperitoneal injections of cisplatin (5 mg/kg/injection; P4394, Sigma-Aldrich, St Louis, Mo.) are performed at 0, 1, and 3 weeks, for a total of 3 injections. Mice are sacrificed at 6 weeks after the first dose of cisplatin (n=6). To analyze the effects of samples, mice are given daily intraperitoneal injections for 7 days, starting from 4 weeks after first dose of cisplatin, and sacrificed at […] (n=6). […]

HepG2 cells = experiment: Oleic acid-induced steatosis in HepG2 cells (Oil Red O); type: cell-based, human; details: 6 h pre-treatment, then 0.5 mM OA for 24 h, OD 510 nm, at noncytotoxic concentration
Procedure: Oleic acid (OA) induced steatosis in HepG2 cells and may consider an in vitro model for human fatty liver disease. HepG2 cells were treated with different concentrations of oleic acid (OA) to induce steatosis. Intracellular lipid was stained by Oil Red O (ORO), and quantified by colorimetric assay. 0.5 mM OA was chosen for further studies (FIGS. 37 and 38). HepG2 cells were treated with test compounds ([…]) and incubated for 48 h (FIG. 39). HepG2 cells were seeded in 24-well plates and deprived from FBS for 24 h. These cells were then treated with different concentrations of test compounds for 6 h before induced with 0.5 mM OA for 24 h. Cells were gently washed with PBS and fixed using paraformaldehyde at RT, then stained with Oil Red (ORO) solution for 30 min at RT. ORO stain was extracted using pure isopropanol and the optical density was detected at 510 nm (FIG. 40).

[6] = test system: atherosclerosis and liver fibrosis in hypercholesterolemic rabbit; experiment: Hypercholesterolemic rabbit model (0.5% cholesterol chow), liver histology scores; type: in vivo; details: 10 mg/kg in 0.5% cholesterol chow; individual liver slides, 12-week study
Procedure: 2 to 3 kg male, New Zealand White rabbits are individually caged and housed in temperature and humidity-controlled rooms. Light-dark cycles are 12 h each. After several days of acclimation, the animals are sequentially assigned to six feeding groups: standard rabbit chow, standard rabbit chow containing 0.5% cholesterol, standard rabbit chow containing both 0.5% cholesterol and 10 mg/kg Lovastatin, standard rabbit chow containing both 0.5% cholesterol and 1% ARH003, standard rabbit chow containing both 0.5% cholesterol and 1% ARH004, standard rabbit chow containing both 0.5% cholesterol and 10 mg/kg AR101-DS2. Except standard rabbit chow, others groups are given standard rabbit chow containing 0.5% cholesterol for 4 weeks (see FIGS. 14-15). The daily feeding amount for each rabbit is 50 g/kg body weight per day. Diets are administered for 8 weeks, after the animals had adjusted to their new environment. At the beginning and end of the 12 weeks study, the rabbits are anesthetized by an intramuscular injection of Zoletil 50 (1 mL/kg) (Virbac Ltd., France), and blood samples are harvested. Finally, the aortas (from aortic arch to the bifurcation of the iliac arteries) and whole livers are collected from the rabbits after they are sacrificed for further histopathological analyses.
(ND) standard rabbit chow, n=5; (HF) standard rabbit chow containing 0.5% cholesterol, n=6; (L) standard rabbit chow containing both 0.5% cholesterol and 10 mg/kg Lovastatin, n=4; (AR003) standard rabbit chow containing both 0.5% cholesterol and 1% ARH003, n=5; (AR004) standard rabbit chow containing both 0.5% cholesterol and 1% ARH004, n=5; (AR101-DS2) standard rabbit chow containing both 0.5% cholesterol and 10 mg/kg AR101-DS2, n=5; The daily feeding amount for each rabbit is 50 g/kg body weight per day.
The rabbit liver tissues (shown in FIG. 29) are perfused with normal saline and fixed in 10% (v/v) formalin-neutralized solution (J.T. Baker, Inc., USA) for 24 hr. […] Briefly, the slices are washed with pure water for 1 min to remove the OCT compound, washed with 50% (v/v) ethanol for 30 sec, and then stained with 2% (w/v) Sudan IV for 1 hr. After further washing with 50% (v/v) ethanol and pure water for 2 min, the slices are counterstained with hematoxylin. Photographs shown in FIG. 30 are acquired using a microscope equipped with a 10-fold magnification objective and quantified on an Alpha Imager 2200 documentation system (Alpha Innotech, USA). […]

[7] = 25 mg/kg intragastric daily for 21 days after BLM
[8] = 50 mg/kg intragastric daily for 21 days after BLM
[9] = DEX 7.5 mg/kg daily for 21 days after BLM

## C=C(CC[C@@H](C)[C@H]1CC[C@H]2C3=C(C(=O)C[C@]12C)[C@@]1(C)CC[C@@H](O)[C@](C)(O)[C@@H]1C[C@@H]3O)[C@@H](C)C(=O)O (racemic) [AR101-DS1, RS-Antcin K]
[1]; [7]
  Final body mass: 36.45 ± 0.28 g
  Pulmonary mass: 0.52 ± 0.01 g
[1]; [8]
  Final body mass: 39.02 ± 0.37 g
  Pulmonary mass: 0.46 ± 0.01 g
[2]
  hydroxyproline (HP) content in lung tissue: reduced
MPO
  lung MPO activities: evidently suppressed

## C=C1C(=O)O[C@@H]2/C=C(\C)C[C@H]3C=C(CC/C=C(\C)CC[C@@H]12)C(=O)O3 [AR100-DS1, Ovatodiolide]
[2]
  hydroxyproline (HP) content in lung tissue: reduced
[3]
  TNF-α, IL-1β, IL-6 and TGF-β production after BLM challenge: improved
MPO
  lung MPO activities: evidently suppressed
[4]
  necrosis and inflammatory infiltrating cells in the lung tissue: significantly improved

## C=C(CC[C@@H](C(=O)O)[C@H]1CC[C@@]2(C)C3=CC[C@H]4C(C)(C)[C@@H](O)CC[C@]4(C)C3=CC[C@]12C)C(C)C [AR101-DS4, Dehydroeburicoic Acid]
[5]
  renal protection effect (normalization of serum CRE and BUN): significant renal protection effect
[1]; [7]
  Final body mass: 36.44 ± 0.28 g
  Pulmonary mass: 0.52 ± 0.01 g
  Pulmonary index: 1.54 ± 0.04
[1]; [8]
  Final body mass: 37.47 ± 0.22 g
  Pulmonary mass: 0.49 ± 0.01 g
  Pulmonary index: 1.31 ± 0.01
HepG2 cells
  OA-induced steatosis in HepG2 cells: inhibition

## C[C@@H]1C[C@H]2[C@@H]3CCC4=CC(=O)C=C[C@]4(C)[C@@]3(F)[C@@H](O)C[C@]2(C)[C@@]1(O)C(=O)CO [DEX, Dexamethasone, reference compound]
[1]; [9]
  Final body mass: 38.50 ± 0.22 g
  Pulmonary mass: 0.42 ± 0.01 g
  Pulmonary index: 1.09 ± 0.02

## CC[C@H](C)C(=O)O[C@H]1C[C@@H](C)C=C2C=C[C@H](C)[C@H](CC[C@@H]3C[C@@H](O)CC(=O)O3)[C@H]21 [L, Lovastatin, reference compound]
[6]
  Score of Inflammation: 1 (1′: mild, 2 foci per 200 field) and 2 (2′: moderate, 2-4 foci per 200 field)
  Score of Steatosis Grade: 2 (2′: 33-66%) (2×) and 0 (0′: low- to medium-power evaluation of parenchymal involvement <5%)

## Dehydrosulphurenic acid/Sulphurenic acid [AR101-DS2]
[6]
  Score of Inflammation: 1 (1′: mild, 2 foci per 200 field) (2×) and 2 (2′: moderate, 2-4 foci per 200 field)
  Score of Steatosis Grade: 3 (3′: >66%) (2×) and 1 (1′: 5-33 %)
[1]; 50 mg/kg intragastric daily for 21 days after BLM, listed as BH
  Pulmonary index: significant decrease
[2]
  hydroxyproline (HP) content in lung tissue: reduced
[3]
  TNF-α, IL-1β, IL-6 and TGF-β production after BLM challenge: improved
MPO
  lung MPO activities: evidently suppressed
[4]
  necrosis and inflammatory infiltrating cells in the lung tissue: significantly improved
